# Test results reported in patent US20170368082A1, “FORMULATIONS OF BRINCIDOFOVIR” (priority 2016, published 2017).
# Tests used:
# [1] = Clinical infusion system compatibility; type: physicochemical
# Description: The testing procedure can be summarized as follows: • 1. […] The tested infusion system was attached to the infusion bag and manually filled with solution from the infusion bag. Approximately 1 mL (triplicates) of the testing solution was collected as an end-of-line sample for analysis (t0, eol). • 4. The testing infusion system was shut off, and stored at ambient conditions until the next time point. […] B Braun, Rate Flow® regulator IV set). […] The infusion systems were then attached to the infusion bag and manually filled with solution from the infusion bag. Aliquots were collected as an end-of-line sample for analysis (t0, eol). The IV lines were closed between time points with the infusate resting within the infusion system and stored at ambient temperature. At testing time points, approximately 17 mL (approx. volume of the IV system) of infusate solution were drained, which led to a replacement of the solution in the IV system from the bag reservoir. Following this replacement, another end-of-line sample was collected for the assessments (t10 min, eol, t3 h, eol, and t6 h, eol). The samples were evaluated for appearance, pH, and brincidofovir recovery.
# [2] = Maximum tolerated dose study, single 2-hour IV infusion (Phase 1); type: in vivo, Sprague-Dawley CD rats
# Description: For Phase 1, Sprague-Dawley CD® rats (2/sex/dosing interval) were dosed with brincidofovir via 2-hour IV infusion once at 2, 4, 10 or 15 mg/kg. The maximum feasible dose (MFD) was limited to 15 mg/kg because of increased hemolytic potential when the concentration of brincidofovir exceeds 1 mg/mL in the dosing solution. The dose volume was 10 mL/kg/hr for all dosing intervals. Each dose administration was followed by a 2-3 day observation period. At the end of the Phase 1 treatment period, all animals were euthanized and discarded without macroscopic examination.
# For Phase 1 (MTD), up to four dose levels of brincidofovir were administered as escalating single doses in naïve male and female rats via intravenous infusion (2-hour). Each dose administration was followed by a 2-3 day observation period. Each subsequent dose level was increased and administered to naïve animals based on the response to the preceding doses until the maximum tolerated dose (MTD) was identified, or until the maximum feasible dose (MFD) based on prior evidence of hemolysis of 15 mg/kg was achieved.
# During Phase 1, each animal received a single dose administered via intravenous infusion (2-hours), followed by a 2-3 day observation period after each dose interval. Following the single intravenous (2-hour) infusion, the animals had their jackets and dosing sets removed and were not returned to saline maintenance.
# For dose observations, Phase 1: Signs of poor health or toxic or pharmacologic effects (e.g., abnormalities in general condition, appearance, activity, behavior, respiration, etc.) observed during infusion period were recorded.
# [3] = B. Braun, 0.1 mg/mL, t10 min, eol
# [4] = B. Braun, 1.0 mg/mL, t10 min, eol
# [5] = Baxter, 0.1 mg/mL, t10 min, eol
# [6] = Baxter, 1.0 mg/mL, t10 min, eol
smiles,measurement,setting,value
CCCCCCCCCCCCCCCCOCCCOP(=O)(O)CO[C@H](CO)Cn1ccc(N)nc1=O [Brincidofovir],Appearance,"[1]; B. Braun, 0.1 mg/mL, t0, bag","Clear, colorless"
same,Measured pH,"[1]; B. Braun, 0.1 mg/mL, t0, bag",7.8
same,Observed c(BCV),"[1]; B. Braun, 0.1 mg/mL, t0, bag",0.091 mg/mL
same,Appearance,"[1]; B. Braun, 0.1 mg/mL, t0, eol","Clear, colorless"
same,Measured pH,"[1]; B. Braun, 0.1 mg/mL, t0, eol",7.7
same,Observed c(BCV),"[1]; B. Braun, 0.1 mg/mL, t0, eol",0.086 mg/mL
same,Appearance,[1]; [3],"Clear, colorless"
same,Measured pH,[1]; [3],7.7
same,Observed c(BCV),[1]; [3],0.091 mg/mL
same,Appearance,"[1]; B. Braun, 0.1 mg/mL, t3 h, eol","Clear, colorless"
same,Measured pH,"[1]; B. Braun, 0.1 mg/mL, t3 h, eol",7.7
same,Observed c(BCV),"[1]; B. Braun, 0.1 mg/mL, t3 h, eol",0.090 mg/mL
same,Appearance,"[1]; B. Braun, 0.1 mg/mL, t6 h, eol","Clear, colorless"
same,Measured pH,"[1]; B. Braun, 0.1 mg/mL, t6 h, eol",7.7
same,Observed c(BCV),"[1]; B. Braun, 0.1 mg/mL, t6 h, eol",0.091 mg/mL
same,Observed c(BCV),"[1]; B. Braun, 0.1 mg/mL, t−24 h, bag",0.090 mg/mL
same,Appearance,"[1]; B. Braun, 1.0 mg/mL, t0, bag","Clear, colorless"
same,Measured pH,"[1]; B. Braun, 1.0 mg/mL, t0, bag",8.1
same,Observed c(BCV),"[1]; B. Braun, 1.0 mg/mL, t0, bag",0.86 mg/mL
same,Appearance,"[1]; B. Braun, 1.0 mg/mL, t0, eol","Clear, colorless"
same,Measured pH,"[1]; B. Braun, 1.0 mg/mL, t0, eol",8.1
same,Observed c(BCV),"[1]; B. Braun, 1.0 mg/mL, t0, eol",0.86 mg/mL
same,Appearance,[1]; [4],"Clear, colorless"
same,Measured pH,[1]; [4],8.1
same,Observed c(BCV),[1]; [4],0.86 mg/mL
same,Appearance,"[1]; B. Braun, 1.0 mg/mL, t3 h, eol","Clear, colorless"
same,Measured pH,"[1]; B. Braun, 1.0 mg/mL, t3 h, eol",8.1
same,Observed c(BCV),"[1]; B. Braun, 1.0 mg/mL, t3 h, eol",0.86 mg/mL
same,Appearance,"[1]; B. Braun, 1.0 mg/mL, t6 h, eol","Clear, colorless"
same,Measured pH,"[1]; B. Braun, 1.0 mg/mL, t6 h, eol",8.1
same,Observed c(BCV),"[1]; B. Braun, 1.0 mg/mL, t6 h, eol",0.86 mg/mL
same,Observed c(BCV),"[1]; B. Braun, 1.0 mg/mL, t−24 h, bag",0.86 mg/mL
same,Appearance,"[1]; Baxter, 0.1 mg/mL, t0, bag","Clear, colorless"
same,Measured pH,"[1]; Baxter, 0.1 mg/mL, t0, bag",7.7
same,Observed c(BCV),"[1]; Baxter, 0.1 mg/mL, t0, bag",0.091 mg/mL
same,Appearance,"[1]; Baxter, 0.1 mg/mL, t0, eol","Clear, colorless"
same,Measured pH,"[1]; Baxter, 0.1 mg/mL, t0, eol",7.7
same,Observed c(BCV),"[1]; Baxter, 0.1 mg/mL, t0, eol",0.088 mg/mL
same,Appearance,[1]; [5],"Clear, colorless"
same,Measured pH,[1]; [5],7.7
same,Observed c(BCV),[1]; [5],0.092 mg/mL
same,Appearance,"[1]; Baxter, 0.1 mg/mL, t3 h, eol","Clear, colorless"
same,Measured pH,"[1]; Baxter, 0.1 mg/mL, t3 h, eol",7.7
same,Observed c(BCV),"[1]; Baxter, 0.1 mg/mL, t3 h, eol",0.091 mg/mL
same,Appearance,"[1]; Baxter, 0.1 mg/mL, t6 h, eol","Clear, colorless"
same,Measured pH,"[1]; Baxter, 0.1 mg/mL, t6 h, eol",7.7
same,Observed c(BCV),"[1]; Baxter, 0.1 mg/mL, t6 h, eol",0.092 mg/mL
same,Observed c(BCV),"[1]; Baxter, 0.1 mg/mL, t−24 h, bag",0.090 mg/mL
same,Appearance,"[1]; Baxter, 1.0 mg/mL, t0, bag","Clear, colorless"
same,Measured pH,"[1]; Baxter, 1.0 mg/mL, t0, bag",8.1
same,Observed c(BCV),"[1]; Baxter, 1.0 mg/mL, t0, bag",0.86 mg/mL
same,Appearance,"[1]; Baxter, 1.0 mg/mL, t0, eol","Clear, colorless"
same,Measured pH,"[1]; Baxter, 1.0 mg/mL, t0, eol",8.1
same,Observed c(BCV),"[1]; Baxter, 1.0 mg/mL, t0, eol",0.85 mg/mL
same,Appearance,[1]; [6],"Clear, colorless"
same,Measured pH,[1]; [6],8.1
same,Observed c(BCV),[1]; [6],0.86 mg/mL
same,Appearance,"[1]; Baxter, 1.0 mg/mL, t3 h, eol","Clear, colorless"
same,Measured pH,"[1]; Baxter, 1.0 mg/mL, t3 h, eol",8.1
same,Observed c(BCV),"[1]; Baxter, 1.0 mg/mL, t3 h, eol",0.86 mg/mL
same,Appearance,"[1]; Baxter, 1.0 mg/mL, t6 h, eol","Clear, colorless"
same,Measured pH,"[1]; Baxter, 1.0 mg/mL, t6 h, eol",8.1
same,Observed c(BCV),"[1]; Baxter, 1.0 mg/mL, t6 h, eol",0.86 mg/mL
same,Observed c(BCV),"[1]; Baxter, 1.0 mg/mL, t−24 h, bag",0.85 mg/mL
same,Survival,"[2]; 2, 4, 10 or 15 mg/kg",survived until their scheduled euthanasia
same,Tolerability,"[2]; 2, 4, 10 or 15 mg/kg single 2-hour IV infusion",all doses were well tolerated
same,Clinical signs,"[2]; Dose 1 (2 mg/kg), both males","rapid breath and hunched posture, with and without piloerection, partially closed eyes, and decreased activity"
same,Clinical signs,"[2]; Dose 2 (4 mg/kg), both males and one female",irregular breathing
same,Clinical signs,[2]; Dose 3 (10 mg/kg),No clinical signs were observed
same,Clinical signs,"[2]; Dose 4 (15 mg/kg), both males and one female","decreased activity with or without irregular breathing, piloerection, and bilateral partially closed eyes"
same,Maximum feasible dose (MFD),[2]; single 2-hour IV infusion,15 mg/kg
